Source: patent US20230190902A1, “IDENTIFICATION OF HLA-RESTRICTED PRAME PEPTIDE EPITOPES, PRAME-SPECIFIC T CELLS SUITABLE FOR "OFF-THE-SHELF" TREATMENT OF CANCER EXPRESSING PRAME” (Children's National Medical Center, priority 2020, published 2023)
“Also recorded” adds a separate entry of the source.

Assays:
PRAME-specific T-cells = assay: Epitope mapping by IFN-γ ELISpot (peptide mini-pools and single 15-mer peptides); type: cell-based, human; settings: 10 μg/well
Procedure: (§1) PRAME Peptides. The PRAME peptide library consisting of 125 15-mer peptides overlapping by 11 amino acids and spanning the entire sequence of PRAME protein was designed to identify HLA class 1 and HLA class H-restricted epitopes (A&A Labs, San Diego, Calif.) 23 peptide pools comprising 10-12 peptides were prepared so that each 15-mer peptide was included in only two pools (FIGS. 7A and 7B). To determine minimal PRAME epitopes, additional 9-mer peptides overlapping by 8 amino acids spanning immunogenic 15-mer peptides were obtained from A&A Labs, San Diego, Calif. All peptides were reconstituted at 10 μg/μl in DMSO and stored at −80°C. until further use.
Epitope mapping. T-cell response to pools of peptide libraries and individual PRAME peptides were determined. by IFN-γ ELISpot assay. ELISpot assay was performed as previously described. 1×10^5 T-cells/well were plated alone, with actin (negative control), SEB (positive control), each peptide pool (1μg/well) and individual peptide (10 μg/well). IFN-γ spot-forming cells (SFC) were enumerated by Zellnet Consulting (Fort Lee, N.J.).
Responses that were at least 10 SFC/1×10^5 T-cells or greater than two-fold the background level of nonstimulated T-cells or T-cells stimulated with actin were considered positive responses.
In order to map the class 1-restricted responses, a mapping grid consisting of 23 mini-pools comprising 125 individual 15-mer peptides spanning the entire PRAME protein sequence to identify PRAME epitopes eliciting a response by ex-vivo expanded T-cells was used (FIG. 7A). IFN-γ production by PRAME- sensitized T-cells in response to stimulation with mini-pools was measured by ELISpot assay.
T-cell responses to single 15-mer peptides selected from the grid and their neighboring peptides were determined by IFN-γ ELISpot assay (FIG. 3B).

CD8+ T-cells [1] = assay: Intracellular IFN-γ and TNF-α cytokine staining, CD8+ T-cells; type: cell-based, human; settings: 6 h stimulation, 200 ng/peptide/well
Procedure: (§2) T-cells were stimulated for 6 h with PRAME PepMix or individual PRAME peptides (200 ng/peptide/well) in the presence of anti-CD28 and CD49d antibodies (RD Biosciences, San Jose, Calif., USA) and Brefeldin A (Golgiplug, BD Biosciences). Controls (unstimulated T-cells, actin, SEE) were included in each experiment. Intracellular IFN-γ (BioLegend, San Diego, Calif.) and TNF-α (Miltenyi Biotec, Bergisch Gladbach, Germany) staining were performed on fixed and permeabilized cells (Cytofix/Cytoperm, BD Biosciences). Data was acquired with a CytoFLEX cytometer (Beckman Coulter, Brea, Calif.), and analyzed using FlowJo Flow Cytometry software (FlowJo LLC, Ashland, Oreg.).
(§3) HLA restriction of these peptides was evaluated with intracellular IFN-γ and TNF-α cytokine staining.

CD4+ T-cells = assay: Intracellular IFN-γ and TNF-α cytokine staining, CD4+ T-cells; type: cell-based, human; settings: 6 h stimulation, 200 ng/peptide/well
Procedure: as §2, §3

CD8+ T-cells [2] = assay: Minimal 9-mer epitope determination by IFN-γ ELISpot; type: cell-based, human; settings: 9-mers overlapping by 8 amino acids
Procedure: as §1
(§4) Minimal epitopes recognized by HLA I-restricted cell lines were determined by IFN-γ ELISpot assay. To confirm the restricted HLA allele, anti-human HLA class 1 B35 antigen monoclonal antibody was used in the ELISpot plate (MyBioSource, San Diego, Calif.).
The minimal 9-mer epitopes overlapping by 8 amino acids spanning the 15-mer peptides were determined by IFN-γ ELISpot.

HLA-B*35 = molecular target: T1, HLA-B*35 (Homo sapiens, UniProt P01889, A329T/A93T/A95T/C349S/D201E/D98Y/E176V/E187L/E204Q/E69T/I218V/K202T/L119I/Q94N/R155S/R180L/S121R/S35A/S48A/T118I/V127L/V306I/V36M/Y140F/Y91F); assay: IFN-γ ELISpot with anti-HLA-B*35 antibody (HLA restriction); type: cell-based; settings: versus T-cell product alone (FIG. 3G)
T1 construct: PRAME-specific T-cells were expanded from PBMCs obtained from twelve healthy donors; endogenous in cells; host or cells: ex vivo expanded PRAME-specific T-cell product from healthy donor PBMCs
Procedure: as §4
To confirm the HLA-B*35 restriction of FPEPEAAQP (SEQ ID NO: 6) further testing was performed using an anti-[…] antibody.

For “ASIYSFPEPEAAQPM (ASLYSFPEPEAAQPM) [compound 36]”, the “T-cell response to single 15-mer PRAME peptide, IFN-γ ELISpot” value (from here on “T-cell response”) (PRAME-specific T-cells; T-cell product of FIG. 3B/3C) was “immunogenic”, the “IFN-γ and TNF-α release by CD8+ T-cells” value (CD8+ T-cells [1]) was “released IFN-γ and TNF-α; also recorded: HLA-I-restricted” and the “IFN-γ and TNF-α release by CD4+ T-cells” value (CD4+ T-cells) was “no specificity”.
For EEQYIAQFTSQFLSL [compound 71], the “T-cell response” value (PRAME-specific T-cells; T-cell product of FIG. 4B/4C) was “recognition”, the “IFN-γ and TNF-α release by CD8+ T-cells” value (CD8+ T-cells [1]) was “no specificity” and the “IFN-γ and TNF-α release by CD4+ T-cells” value (CD4+ T-cells) was “released IFN-γ and TNF-α; also recorded: release of IFN-γ and TNF-α”.
For EKVKRKKNVLRLCCK [compound 50], the “T-cell response” value (PRAME-specific T-cells; T-cell product of FIG. 4B/4C) was “recognition”, the “IFN-γ and TNF-α release by CD8+ T-cells” value (CD8+ T-cells [1]) was “no specificity” and the “IFN-γ and TNF-α release by CD4+ T-cells” value (CD4+ T-cells) was “released IFN-γ and TNF-α; also recorded: release of IFN-γ and TNF-α”.
In the case of EQPFIPVEVINDLFL [compound 43], the “T-cell response” value (PRAME-specific T-cells; T-cell product of FIG. 3B/3C) is reported as “immunogenic”, the “IFN-γ and TNF-α release by CD8+ T-cells” value (CD8+ T-cells [1]) is reported as “released IFN-γ and TNF-α; also recorded: HLA-I-restricted” and the “IFN-γ and TNF-α release by CD4+ T-cells” value (CD4+ T-cells) is reported as “no specificity”.
For FPEPEAAQP, the “IFN-γ secretion upon stimulation with 9-mer (minimal epitope)” value (CD8+ T-cells [2]) was “secreted IFN-γ; also recorded: minimal 9-mer peptides”, the “specificity of T-cell product with anti-HLA-B*35 antibody” value (HLA-B*35) was “decreased specificity” and the “specificity of T-cell product with anti-HLA-B*35 antibody” value (HLA-B*35; listed as FPEPEAAQPM) was “confirms HLA restriction”.
For IPVEVINDLFLKEGA [compound 44], the “T-cell response” value (PRAME-specific T-cells; T-cell product of FIG. 3B/3C) was “immunogenic”, the “IFN-γ and TNF-α release by CD8+ T-cells” value (CD8+ T-cells [1]) was “released IFN-γ and TNF-α; also recorded: HLA-I-restricted” and the “IFN-γ and TNF-α release by CD4+ T-cells” value (CD4+ T-cells) was “no specificity”.
RLVELAGQSLLKDEA [compound 7] was tested, and the “IFN-γ and TNF-α release by CD8+ T-cells” value (CD8+ T-cells [1]) was “activated” and the “IFN-γ and TNF-α release by CD4+ T-cells” value (CD4+ T-cells) was “activated”.
For SFPEPEAAQPMTKKR [compound 37], the “T-cell response” value (PRAME-specific T-cells; T-cell product of FIG. 3B/3C) was “immunogenic”, the “IFN-γ and TNF-α release by CD8+ T-cells” value (CD8+ T-cells [1]) was “released IFN-γ and TNF-α; also recorded: HLA-I-restricted” and the “IFN-γ and TNF-α release by CD4+ T-cells” value (CD4+ T-cells) was “no specificity”.
For SPEKEEQYIAQFTSQ [compound 70], the “T-cell response” value (PRAME-specific T-cells; T-cell product of FIG. 4B/4C) was “recognition”.
VEVLVDLFL was tested, and the “IFN-γ secretion upon stimulation with 9-mer (minimal epitope)” value (CD8+ T-cells [2]) was “secreted IFN-γ; also recorded: minimal 9-mer peptides”.
